The text below walks through data of article PMC8661032, “Broad-Spectrum Antibacterial Peptide Kills Extracellular and Intracellular Bacteria Without Affecting Epithelialization” (Frontiers in Microbiology, 2021).

Data set [1] relates to S. aureus. Nature of the data set: microbe, parasite or virus in culture. Conditions: for MIC: CAMHB, 24 h, three independent experiments. Here is the method:
(§1) Briefly, bacterial colonies from blood agar plates were suspended and grown in Cation-Adjusted Mueller-Hinton Broth (CAMHB, […] Ca^2+, […] Mg^2+). The bacterial suspension was adjusted to 0.5 McFarland standard (∼1 × 10^8 colony-forming units (CFU)/ml) and serial diluted 1:200 in CAMHB (∼5 × 10^5 CFU/mL). […] The suspension was plated out on blood agar plates to confirm the CFU/ml. Both the microtiter plates and the blood agar plates were incubated at 37°C for 24 h.

Data set [2] relates to P. aeruginosa. Nature of the data set: microbe, parasite or virus in culture. Conditions: for MIC: Pseudomonas aeruginosa. Here is the method:
as §1

Data set [3] concerns A. baumannii. Nature of the data set: microbe, parasite or virus in culture. The conditions noted are these: for MIC: Acinetobacter baumannii. As for the experimental part: as §1
Data set [4] has as its system S. epidermidis MRSE (SO-SEP9-1). The conditions noted are these: SO-SEP9-1, 24 h. Here is the method:
as §1

In data set [5] the test system is E. coli. Briefly: Growth inhibition assay (OD600 over 24 h). The format is cell-based, Escherichia coli. The arrangement: Reduction of viability E. coli (60 μg/ml): key to the marks not given beside the values. The conditions noted are these: 60 μg/ml peptide, LB medium, OD600 every hour over 24 h, relative to untreated control. As for the experimental part: An overnight culture of Escherichia coli was diluted 1:100 in Luria-Bertani (LB) medium and allowed to grow until an optical density (OD) at 600 nm (OD600) of 0.06–0.1. APIM-peptides were prepared by serial dilution in Milli-Q H2O and kept at 4°C. Fresh LB medium (60 μl) was added to a flat-bottom microtiter plate. The bacterial suspension was diluted 1:100 in LB, and 75 μl of this suspension was added to the wells. Finally, 15 μl of APIM-peptide solution (to final concentrations 60, 120, and 240 μg/ml) or distilled water (positive control) was added to the wells, reaching a total volume of 150 μl per well. Data are presented only for the dose that separated the effect of the different peptides, i.e., 60 μg/ml. A blank sterile medium was used as negative control. The plates were incubated with shaking at 510 rpm at 37°C inside a plate reader (TECAN, Spark®), and OD was read every hour over a period of 24 h.
The MIC for E. coli in LB medium is higher than that in CAMHB; thus, concentrations higher than the MIC given in Table 2 are used in the growth inhibition and mutagenesis assays. […]
E. coli. Growth of E. coli in LB medium over 24 hours (Optical Density (OD) 600 nm) after addition
of APIM-peptide variants 1-5 (60 µg/mL) at time t=0 (see Table 2). Negative (-) control is no
bacteria added, positive (+) control is untreated bacteria.
highest inhibition of growth.
control (black filled line).

Data set [6] concerns E. coli. Briefly: microbe, parasite or virus in culture. The conditions noted are these: for MIC E. coli: K-12 MG1655, CLSI broth microdilution, CAMHB, 37°C, visible growth, net peptide concentration; for MIC: Escherichia coli. As for the experimental part: as §1
In general terms: Dilution methods test growth across graded concentrations, often in twofold steps.

Data set [7] has as its system K. pneumoniae. Briefly: microbe, parasite or virus in culture. The conditions noted are these: for MIC: Klebsiella pneumoniae. Here is the method: as §1
For data set [8], the system named is E. coli. Nature of the data set: Rifampicin (RifR) mutagenesis assay after UV-C. The data set is classed as cell-based, Escherichia coli. Here is the method: The rifampicin (Rif^R) mutagenesis assay was performed as described ([Nedal et al., 2020]). Briefly, an overnight culture of E. coli was diluted 1:1,000 and grown until an OD600 of 0.01. APIM-peptides (20 μg/ml) were added to LB media with glass beads (for uniform distribution of APIM-peptides) and incubated for 30 min at 37°C. The pellets were next collected, resuspended in 500 μl PBS, and exposed to UV-C (20 mJ/cm^2) in a six-well plate at 4°C. The unexposed bacteria (-UV) were otherwise handled exactly like the UV-exposed bacteria. Next, the cells were resuspended in LB media and incubated in a rotary shaker at 37°C at 250 rpm for 2 h before being harvested, diluted, and plated on LB with soft agar with and without rifampicin (100 μg/ml). Mutation frequency, Rif^R/10^8, is obtained as follows: (number of colonies on the rifampicin plate (Rif^R)/(number of colonies on LB plates without antibiotics), per milliliter of bacterial suspension. […]
mutagenesis in E. coli more efficiently than the other peptide variants.
Increase in mutation frequencies after treatment with UV-C (20 mJ/cm2) relative to spontaneous mutations frequencies using the RifR assay were determined. This increase is set to 100% for untreated control, and % reduction after addition of peptides 1-5 (20 μg/mL) are shown. Mean ± SD from three independent experiments. * p<0.05, ** p<0.005

Data set [9] has as its system HEK293 cells. Here is the method:
HEK293 cells (6,000 cells/well) were seeded in 96-well microtiter plates. After 4 h, APIM-peptides (12–48 μg/ml) were added, and the cells were incubated without change of media for up to 4 days. Viability was measured using the 3-(4,5-dimethylthiazol-2-yl)-2,5-diphenyltetrazolium bromide (MTT) assay as described ([Gilljam et al., 2009]).
(1 picture or pasted object on this page, not shown here)

The mark [10] stands for this setting: Staphylococcus aureus, ATCC29213, 24 h, Reference strain ATCC 29213.
[11] abbreviates: Staphylococcus aureus, MRSA, Clinical isolate SO-SAU19-1 (MRSA).
Setting [12] is: SO-ECO19-1 (ESBL-CARB-A(CTX-M-24)/D(OXA-48)).

Each structure is given as a SMILES string. ≈ marks a conversion by molar mass, not a printed value. Residues, ends and D or L forms follow the SMILES beside them.

Consider `CC(=O)O[C@H]1C[C@@]2(C)[C@@H](C[C@@H](O)[C@H]3[C@@]4(C)CC[C@@H](O)[C@@H](C)[C@@H]4CC[C@@]32C)/C1=C(\CCC=C(C)C)C(=O)O` [Fusidic acid, fusidic acid], for which the “Combination effect with 0.5× MIC betatide” value (shortened to “Combination effect”) in data set [1] (ATCC 29213) is “Additive, 2×”; in data set [1] (SO-SAU19-1 (MRSA)) it was “Additive 8×”; in [1] (SO-SAU 19-2 (FR-MRSA)) it was “Additive 2×”; in data set [1] (SO-SAU 19-3 (FR-MRSA)) it was “Additive 4×”; in data set [1] (SO-SAU 19-4 (FR-MRSA)), “Additive 2×”. Moreover, the MIC came to 8 µg/mL (≈ 15.5 µM) in data set [1] (SO-SAU 19-4 (FR-MRSA)); 0.25 µg/mL (≈ 0.484 µM) in data set [1] (setting [10]); 0.25 µg/mL (≈ 0.484 µM) in [1] (setting [11]); 8 µg/mL (≈ 15.5 µM) in data set [1] (Staphylococcus aureus, MRSA, SO-SAU 19-2 (FR-MRSA)). Further, the “reduction in MIC of fusidic acid when combined with 0.5× MIC betatide” value in [1] (fusidic acid-sensitive MRSA strain) was 8 ×.
As for `C[C@@H](O)[C@H]1C(=O)N2C(C(=O)O)=C(S[C@@H]3CN[C@H](C(=O)N(C)C)C3)[C@H](C)[C@H]12` [Meropenem, meropenem], the “Combination effect” value is “None” in [2] (ATCC 27853), “Additive 2×” in data set [2] (SO-PAE19-1 (multidrug resistant)), “None” in [3] (ATCC 19606) and “None” in [3] (SO-ABA19-1 (ESBL-CARBA-D)). The MIC in data set [2] (24 h) stood at 64 µg/mL (≈ 167 µM); in data set [2] (ATCC27853, 24 h), 0.5 µg/mL (≈ 1.3 µM); in [3] (24 h) it was 512 µg/mL (≈ 1340 µM); in data set [3] (ATCC19606, 24 h), 4 µg/mL (≈ 10.4 µM).
Turning to `CCC[C@@H]1C[C@@H](C(=O)N[C@@H]([C@H]2O[C@H](SC)[C@H](O)[C@@H](O)[C@H]2O)[C@H](C)Cl)N(C)C1` [Clindamycin, clindamycin], the “Combination effect” value in data set [1] (ATCC 29213) and in data set [1] (SO-SAU19-1 (MRSA)) was “Additive 2×” each time. The MIC in [1] (setting [10]) came out at 0.25 µg/mL (≈ 0.588 µM); in data set [1] (setting [11]), 2050 µg/mL (≈ 4820 µM).
Consider `CO[C@@]1(NC(=O)Cc2cccs2)C(=O)N2C(C(=O)O)=C(COC(N)=O)CS[C@@H]21` [Cefoxitin, cefoxitin], for which the “Combination effect” value in data set [1] (ATCC 29213) is given as “None”; in data set [1] (SO-SAU19-1 (MRSA)) it was “Additive 2×”. Also, the MIC in [1] (setting [10]) worked out at 4 µg/mL (≈ 9.36 µM); in [1] (setting [11]), 32 µg/mL (≈ 74.9 µM).
`CC[C@H](C)[C@H](NC(=O)CNC(=O)[C@H](CCCCN)NC(=O)[C@@H](NC(=O)[C@H](CC(C)C)NC(=O)[C@H](Cc1c[nH]c2ccccc12)NC(=O)[C@H](CCCNC(=N)N)NC(=O)[C@H](CC(=O)O)NC(=O)[C@H](CCSC)NC(C)=O)C(C)C)C(=O)N[C@@H](CC(C)C)C(=O)N[C@@H](CCC(N)=O)C(=O)N[C@@H](Cc1c[nH]c2ccccc12)C(=O)N[C@@H](CCCNC(=N)N)C(=O)N[C@@H](CCCCN)C(=O)N[C@H](C(=O)N[C@@H](CCCNC(=N)N)C(=O)N[C@@H](CCCNC(=N)N)C(=O)N[C@@H](CCCNC(=N)N)C(=O)N[C@@H](CCCNC(=N)N)C(=O)N[C@@H](CCCNC(=N)N)C(=O)N[C@@H](CCCNC(=N)N)C(=O)N[C@@H](CCCNC(=N)N)C(=O)N[C@@H](CCCNC(=N)N)C(=O)N[C@@H](CCCNC(=N)N)C(N)=O)[C@@H](C)CC` [Peptide 4] (Ac-MDRWLVKGILQWRKIRRRRRRRRR-NH2): the “MIC S. epidermidis MRSE” value in [4] came out at 16 µg/mL (≈ 4.72 µM). Besides, the “Reduction of viability E. coli (60 μg/ml)” value in data set [5] is recorded as “++”. For the same molecule, the “MIC E. coli” value in data set [6] (24 h) is 32 µg/mL (≈ 9.44 µM).
Regarding `C[C@@H](O)[C@H]1C(=O)N2C(C(=O)O)=C(S[C@@H]3CN[C@H](C(=O)Nc4cccc(C(=O)O)c4)C3)[C@H](C)[C@H]12` [Ertapenem, ertapenem], the “Combination effect” value is given as “Additive 4×” in data set [7] (ATCC 13883), “Additive 2×” in [7] (SO-KPN19-1 (ESBL-CARBA-D)), “None” in data set [6] (MG1655) and “Additive 2×” in data set [6] (setting [12]). Also, the MIC amounted to 32 µg/mL (≈ 67.3 µM) in [7] (24 h); 0.03 µg/mL (≈ 0.0631 µM) in data set [7] (ATCC13883, 24 h); 64 µg/mL (≈ 135 µM) in [6] (24 h); 0.06 µg/mL (≈ 0.126 µM) in data set [6] (MG1655, 24 h).
`CC[C@H](C)[C@H](NC(=O)CNC(=O)[C@H](CCCCN)NC(=O)[C@@H](NC(=O)[C@H](CC(C)C)NC(=O)[C@H](Cc1c[nH]c2ccccc12)NC(=O)[C@H](CCCNC(=N)N)NC(=O)[C@H](CC(=O)O)NC(=O)[C@H](CCSC)NC(C)=O)C(C)C)C(=O)N[C@@H](CC(C)C)C(=O)N[C@@H](CCC(N)=O)C(=O)N[C@@H](Cc1c[nH]c2ccccc12)C(=O)N[C@@H](CCCNC(=N)N)C(=O)N[C@@H](CCCCN)C(=O)N[C@H](C(=O)N[C@@H](CCCNC(=N)N)C(=O)N[C@@H](CCCNC(=N)N)C(=O)N[C@@H](CCCNC(=N)N)C(=O)N[C@@H](CCCNC(=N)N)C(=O)N[C@@H](CCCNC(=N)N)C(=O)N[C@@H](CCCNC(=N)N)C(=O)N[C@@H](CCCNC(=N)N)C(=O)N[C@@H](CCCNC(=N)N)C(=O)N[C@@H](CCCNC(=N)N)C(=O)N[C@@H](CCCNC(=N)N)C(N)=O)[C@@H](C)CC` [Peptide 3] (Ac-MDRWLVKGILQWRKIRRRRRRRRRR-NH2): the “MIC S. epidermidis MRSE” value in data set [4] is 16 µg/mL (≈ 4.51 µM). Further, the “UV-induced mutation frequencies relative to control” value in [8] (20 μg/mL, UV-C 20 mJ/cm2, RifR assay, three independent experiments) is reported as “significantly reduced”. Moreover, in data set [8] (20 μg/ml peptide, UV-C 20 mJ/cm^2, RifR assay, relative to untreated control), the “Reduction of mutation frequency E. coli (20 μg/ml)” value was “++”. Moreover, the “Reduction of viability HEK293 (24 μg/ml)” value in [9] is “+”. Moreover, the “MIC E. coli” value in [6] (24 h) was found to be 32 µg/mL (≈ 9.03 µM).
With `COc1cccc(OC)c1C(=O)N[C@@H]1C(=O)N2[C@@H]1SC(C)(C)[C@@H]2C(=O)O` [Methicillin, methicillin], the “Combination effect” value is recorded as “Additive 2×” in data set [1] (ATCC 29213) and “Additive 4×” in data set [1] (SO-SAU19-1 (MRSA)). Also, the MIC turned out to be 1 µg/mL (≈ 2.63 µM) in [1] (setting [10]) and 8 µg/mL (≈ 21 µM) in [1] (setting [11]).
Turning to `CO/N=C(\C(=O)N[C@@H]1C(=O)N2C(C(=O)O)=C(CSc3nc(=O)c(=O)[nH]n3C)CS[C@H]12)c1csc(N)n1` [Ceftriaxone, ceftriaxone], the MIC in data set [6] (24 h) came to 1020 µg/mL (≈ 1850 µM); in [6] (MG1655, 24 h) it was 0.06 µg/mL (≈ 0.108 µM). The results for the “Combination effect” value in data set [6] (MG1655) and in data set [6] (setting [12]) were “None” and “Additive 4×”, respectively.
